According to ChEMBL document CHEMBL1136585, “Inhibition of inosine monophosphate dehydrogenase (IMPDH) by 2-[2-(Z)-fluorovinyl]inosine 5'-monophosphate” (Bioorg Med Chem Lett, 2003):

Tests used:
[1] = target: Inosine-5'-monophosphate dehydrogenase (Escherichia coli); experiment: Inhibition of IMPDH (Inosine 5''-monophosphate dehydrogenase)from Escherichia coli B3 cells
[2] = tested on: Inosine-5'-monophosphate dehydrogenase (Escherichia coli); experiment: as above; remark: listed apart in the source

Ki [1] [µM]	K inact [2] [s⁻¹]	SMILES
62	–	O=P(O)(O)OC[C@H]1O[C@@H](n2cnc3c(Cl)ncnc32)[C@H](O)[C@@H]1O
1.11	0.0269	O=P(O)(O)OC[C@H]1OC(n2cnc3c(O)nc(/C=C/F)nc32)[C@H](O)C1O (single isomer, unassigned)
